# Measured values: patent US20200281873A1, “Adamantane or Bicyclic Monoterpenoid Derivatives for Use in the Treatment of Leishmaniasis” (Commissariat a l'Energie Atomique et aux Energies …, priority 2017, published 2020)
# Key:
# [1] = test system: L. donovani (MHOM/ET/67/HU3) amastigotes; experiment: In vivo antileishmanial evaluation, Leishmania donovani/Balb/c mouse model (liver parasite load); conditions: for % reduction of parasite burden in the liver / LDU ± SD (parasites in the liver): Balb/c mice
# Description: Compounds VP343, VP370 were evaluated in vivo for their antileishmanial properties by oral and intravenous route on the Leishmania donovani/Balb/c mouse model, comparatively to miltefosine, used as reference drug, according to a previously described protocol (Balaraman et al., 2015). Six- to eight-week-old Balb/c mice (Élevages Janvier, Le Genest Saint Isle, France) were infected intravenously on day 1 with 10^7 L. donovani (MHOM/ET/67/HU3) amastigotes derived from the spleen of hamsters and randomly sorted into four groups of 10 mice and one group of 12 mice as infected controls but not treated. The treatment administered orally or intravenously, started one week post-infection, on day 8, and continued for 5 consecutive days. At day 15, all groups of mice were autopsied and livers and spleens were weighed. Parasite load in the liver was determined by counting the number of amastigotes/500 liver cells in Giemsa-stained impression smears prepared from the liver and applying Stauber's formula. Three researchers counted the slides independently and the results are expressed as the mean values±SD. The parasite burden of treated groups and controls were compared using Student's t-test or the Kruskal-Wallis nonparametric analysis of variance test for comparing two groups. Significance was established for a P value<0.05.
# [2] = Incubation of VP343 with mouse hepatic microsomes (LC-MS); assay type: in vitro ADME; conditions: t = 45 min
# Description: (§1) The metabolites' identification of VP343 was performed after incubation of the compound with hepatic microsomal preparations from mouse, dog and human origin. The assay was performed by mixing VP343 at 5; 4; 2 or 1 μM with CD1 mouse hepatic microsomes (reference MIC255030 Biopredic) at 0.5 mg/mL of protein, or Beagle dog hepatic microsomes (reference MIC257013 Biopredic) at 1 mg/mL of protein, or human hepatic microsomes (reference MIC159882 Biopredic) at 1 mg/mL of protein, together with 1 mM NADPH (reference N1630 Sigma Aldrich), a phase I reaction's cofactor, in a 0.1 M phosphate buffer pH 7.4. Samples were then incubated in a Thermomixer® (Eppendorf) at 37° C. and 300 rotations per minute. After 45 minutes of incubation, the reaction was stopped with acetonitrile (0.5 volume of the experimental incubation volume). The samples' supernatants were then separated from the microsomes by centrifugation at 20,000 g during 10 minutes (Sorvall ST 16, Thermo Fisher Scientific) before analysis by liquid chromatography coupled to mass spectrometry (LC-MS).
# (§2) The analysis was performed in two steps: first, on a positive electrospray ionisation source using a Waters Acquity I class UPLC (Ultra Performance Liquid Chromatography) system coupled to a Waters triple quadrupole mass spectrometer (Xevo TQMS) and then on an orbitrap source using a Thermo Fisher UHPLC (Ultra High Performance Liquid Chromatography) system (Ultimate 3000) coupled to a Thermo Fisher orbitrap mass spectrometer (Q Exactive) to confirm the structures of the identified metabolites. VP343 and his metabolites were separated by the UPLC system with a six minutes gradient of acetonitrile containing 0.1% of formic acid in a BEH C18 column (1.7 μm, 2.1×50 mm, Waters) with a mobile phase flow rate of 0.6 mL/min.
# The metabolization of VP343 was studied by incubating the compound with mouse, dog, and human hepatic microsomes. The concentration of VP343 in the microsomal preparations was measured at t=0 and at t=45 min by liquid chromatography-tandem mass spectrometry (LC-MS). […]
# [3] = VP343 metabolites' identification by LC-MS in hepatic microsome supernatants; assay type: in vitro ADME; conditions: supernatants of mouse, dog and human hepatic microsomes incubated with VP343 for 45 min
# Description: as §1, with “The samples' supernatants were then separated from the microsomes by centrifugation at 20,000 g during 10 minutes (Sorvall ST 16, Thermo Fisher Scientific) before analysis by liquid chromatography coupled to mass spectrometry (LC-MS).” left out
# In each analytical system, the identification was performed in two steps. […] This means that, in a define range mass (m/z 250 to 450), each ion present in the sample should be detected. […] By adding collision energy, the products ions of the targeted metabolites were monitored to validate the supposed metabolite's structure obtained after injecting the sample in full scan mode.
# To further investigate the number and nature of the metabolites, supernatants from mouse, dog and human hepatic microsomes incubated with VP343 for 45 min were analyzed by LC-MS (cf. protocol).
# [4] = test system: Leishmania infantum axenic amastigotes; experiment: Evaluation on Leishmania donovani infantum axenic amastigotes (SYBR Green I); assay type: cell-based; conditions: Leishmania infantum; Table II; 3 different experiments, SYBR Green I method; read-out: IC50 axenic
# Description: Protocol for Evaluation on Leishmania donovani infantum Axenic Amastigotes
# Amastigote forms of the parasite were suspended to yield 10^7 parasitic cells mL^−1. The maximum final compound concentration used was 100 μM. Triplicates were used for each concentration. Cultures were incubated at 37° C. for 72 h in the dark and under a 5% CO2 atmosphere, then the viability of the amastigotes was assessed using the SYBR® Green I (Invitrogen, France) incorporation method. Parasite growth was determined by using SYBR® Green I, a dye with marked fluorescence enhancement upon contact with parasite DNA. Parasites were lysed and quantified by Direct PCR-Cell Genotyping without DNA isolation protocol (Euromedex, France). 10 μL of lysed parasite solution from each well was added to 40 μL of PCR-Cell reagent containing the SYBR® green I in a qPCR plate of 96 wells, and the contents were mixed. Fluorescence was measured with Mastercycler® ep realplex (Eppendorf, France). Measured fluorescence was compared to that from the range obtained with different parasite densities. The antileishmanial activity was expressed as IC50 in μM (concentration of drug inhibiting 50% of the parasite growth, comparatively to the controls treated with the excipient only).
# [5] = Incubation of VP343 with dog hepatic microsomes (LC-MS); assay type: in vitro ADME; conditions: for VP343 residual concentration: t = 45 min
# Description: as §1, §2
# The metabolization of VP343 was studied by incubating the compound with mouse, dog, and human hepatic microsomes. The concentration of VP343 in the microsomal preparations was measured at t=0 and at t=45 min by liquid chromatography-tandem mass spectrometry (LC-MS). About 5% to 50% of VP343 remained after 45 min of incubation with mouse microsomes according to experiments (Table VI and FIG. 3, respectively). About 5% of VP343 remained with dog microsomes. About 40 to 55% remained with human microsomes.
# [6] = intravenous route, 10 mg/kg/day × 5
smiles,measurement,setting,value
COc1ccc(Br)cc1CN(C)C12CC3CC(CC(C3)C1)C2 [VP343],Activity in vivo by intravenous route (in words),"[1]; 10 mg/kg/day×5 intravenous, Dunn's multiple comparisons test",significantly active
same,% reduction of parasite burden in the liver,[1]; [6],42.4%
same,LDU ± SD (parasites in the liver),[1]; [6],0.19 ± 0.09 ×10^8
same,% reduction of parasite burden in the liver,"[1]; oral route, 10 mg/kg/day × 5",60.2%
same,LDU ± SD (parasites in the liver),"[1]; oral route, 10 mg/kg/day × 5, autopsy day 15",0.49 ± 0.07 ×10^9
same,% reduction of parasite burden in the liver,"[1]; oral route, 20 mg/kg/day × 5",70.8%
same,LDU ± SD (parasites in the liver),"[1]; oral route, 20 mg/kg/day × 5, autopsy day 15",0.36 ± 0.08 ×10^9
same,Activity in vivo by oral route (in words),"[1]; VP343 and VP370 at 20 mg/kg/day×5, VP343 also at 10 mg/kg/day×5, Tukey's multiple comparisons test",significantly active
same,VP343 residual concentration,[2]; initial concentration 1 μM,0.08 µM
same,VP343 residual concentration,[2]; initial concentration 2 μM,0.09 µM
same,VP343 residual concentration,[2]; initial concentration 4 μM,0.25 µM
same,Number of metabolites detected,[3],11
same,IC50,[4],9.29 µM
same,VP343 remaining after incubation,[5]; 45 min,About 5%
same,VP343 residual concentration,[5]; initial concentration 1 μM,0.03 µM
same,VP343 residual concentration,[5]; initial concentration 2 μM,0.09 µM
same,VP343 residual concentration,[5]; initial concentration 4 μM,0.12 µM
